Each structure is given as a SMILES string.

Assay [1] deals with Tau phosphorylation at Ser396 (pSer396). In words: Tau phosphorylation assay (pSer396 ELISA / western blot) in SH-SY5Y cells.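 Note: EC50 for reduction of Tau pSer396 in lysed cells, measured by colorimetric ELISA or chemiluminescent western blot, both using the same pSer396 antibody.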 The class given is cell-based, human. As to conditions: Homo sapiens; SH-SY5Y cells, overnight (16-18 h) exposure; read-out: pSer396 Tau EC50.
Assay [2] has as its system SW480 colon carcinoma cells. Put plainly: Cell viability assay (CellTiter-Glo). As to conditions: Homo sapiens; for EC50: 96 h, SW480 cells, CellTiter-Glo, four days incubation; for inhibition at 10 µM: SW480, read-out: percent inhibition at 10 μM. Format: cell-based, human.
For assay [3], the system named is IL-6. Put plainly: IL-6 inhibition in LPS-stimulated human peripheral blood mononuclear cells (HTRF).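 For all read-outs here: IL-6 detected by HTRF with an XL665- and Cryptate-labelled anti-IL-6 antibody pair, samples run in duplicate, EC50 obtained from a four-parameter Levenberg-Marquardt curve fit.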 As to conditions: Homo sapiens, PBMC; for EC50: Table 9, huPBMCs, LPS 50 ng/mL, 22 hours, dose-response starting from 10 μM; for inhibition at 10 µM: read-out: percent value in parentheses beside EC50 >10 μM. The class given is cell-based.
Description: After 22 hour incubation, a mixture of anti-IL6 XL665 and anti-IL-6 Cryptate diluted in reconstitution buffer (Catalog #62IL6PEC, Cisbio Inc., Bedford, Mass.) was added to each well. […] All samples were processed in duplicate. […] EC50 was determined using software generated by Dotmatics Limited (Windhill Bishops Stortford Herts, UK) using the Levenberg-Marquardt 4 parameter fitting procedure with finite different gradients.
The target of assay [4] is recombinant DYRK1A kinase (Homo sapiens (Human), UniProt Q13627). In words: DYRK1A kinase assay (Ser/Thr 18 peptide Z-lyte FRET).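 Note: Read-out is the coumarin to fluorescein emission ratio, referenced to unphosphorylated (0%) and phosphorylated (100%) Ser/Thr 18 peptide controls, values from dose-response curves by non-linear regression.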 Format: biochemical. As to conditions: 30 μM ATP, 1 h room temperature.
In assay [5] the target is recombinant GSK3β kinase (Homo sapiens (Human), UniProt P49841). Put plainly: GSK3β kinase assay (Ser/Thr 09 peptide Z-lyte FRET).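 Note: kinase activity read as coumarin to fluorescein emission ratio, 11-point threefold dilutions from 10 µM to 0.0003 µM in duplicate, unphosphorylated and phosphorylated peptide as 0% and 100% controls.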 As to conditions: 46 μM ATP, 1 h room temperature. The class given is biochemical.
Assay [6] concerns Wnt pathway (Sp5-Luc reporter, TCF/LEF binding sites) in SW480 colon carcinoma cells. In words: Screening assay for Wnt activity: Sp5-Luc reporter gene assay.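 For all read-outs here: firefly luciferase luminescence read in stably transduced SW480 cells carrying the Sp5 promoter reporter with eight TCF/LEF sites, compounds given in 0.1% DMSO final.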 Format: cell-based, human. As to conditions: Homo sapiens; for EC50: Sp5-Luc reporter, SW480 cells, 36 to 48 hours; for inhibition at 10 µM: SW480, read-out: percent inhibition at 10 μM.
Description: The screening assay for Wnt activity is described as follows.
Following incubation, 15 μl of BriteLite Plus luminescence reagent (Perkin Elmer) was added to each well of the 384-well assay plates. The plates were placed on an orbital shaker for 2 min and then luminescence was quantified using the Envision (Perkin Elmer) plate reader.
The subject of assay [7] is α-smooth muscle actin (αSMA) positive LL29 cells. Put plainly: Inhibition of fibrotic process: αSMA in TGF-β1 treated primary human fibroblasts from IPF patients.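 For all read-outs here: controls were TGF-β1 stimulated wells with DMSO vehicle (positive) and cells given DMSO alone (negative), cultured in F12 medium with 1% fetal bovine serum.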 Format: cell-based. As to conditions: Homo sapiens, Fibroblast; for EC50: 96 h, Table 8, LL29 fibroblasts from IPF patients, TGF-β1 20 ng/mL, 4 days, dose-response 10 μM to 0.94 nM; for inhibition at 10 µM: read-out: percent value in parentheses beside EC50 >10 μM.

recombinant GSK3β kinase, sequence (P49841 whole entry): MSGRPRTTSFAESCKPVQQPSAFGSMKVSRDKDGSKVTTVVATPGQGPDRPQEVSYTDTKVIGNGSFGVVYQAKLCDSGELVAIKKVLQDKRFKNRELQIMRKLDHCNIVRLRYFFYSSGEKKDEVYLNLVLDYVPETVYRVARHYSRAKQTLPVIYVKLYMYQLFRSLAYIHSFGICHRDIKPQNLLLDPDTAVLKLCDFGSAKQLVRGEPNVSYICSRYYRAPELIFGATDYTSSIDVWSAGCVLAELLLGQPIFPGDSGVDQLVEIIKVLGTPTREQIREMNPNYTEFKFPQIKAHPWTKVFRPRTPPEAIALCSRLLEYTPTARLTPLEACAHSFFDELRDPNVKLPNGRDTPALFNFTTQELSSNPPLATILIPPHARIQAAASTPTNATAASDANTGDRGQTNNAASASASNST

As to `Cn1cncc1-c1ccc2cnc(NC(=O)[C@H]3CC[C@H](CO)CC3)cc2c1` [Compound 531, trans-4-(Hydroxymethyl)-N-(6-(1-methyl-1H-imidazol-5-yl)isoquinolin-3-yl)cyclohexane-1-carboxamide], the EC50 in assay [1] was 0.146 µM; in assay [2] it was 0.989 µM; in assay [3], 0.698 µM; in assay [4], 0.0009 µM; in assay [5], 0.05 µM; in assay [6], 1.06 µM. The compound also yielded an EC50 in assay [7] of 0.153 µM.

As to `Cn1cncc1-c1ccc2cnc(NC(=O)C3CNC3)cc2c1` [Compound 535, N-(6-(1-Methyl-1H-imidazol-5-yl)isoquinolin-3-yl)azetidine-3-carboxamide], the EC50 was 6.2 µM in assay [1]; more than 10 µM in assay [2]; more than 10 µM in assay [3]; 0.0045 µM in assay [4]; 0.087 µM in assay [5]; more than 10 µM in assay [6]. In assay [7], this compound had an EC50 of more than 10 µM. Further, the inhibition at 10 µM is 42% in assay [2], 3.1% in assay [3], 44.9% in assay [6] and 17.7% in assay [7].

As for `Cn1cncc1-c1ccc2cnc(NC(=O)[C@H]3CCCO3)cc2c1` [Compound 537, (R)—N-(6-(1-Methyl-1H-imidazol-5-yl)isoquinolin-3-yl)tetrahydrofuran-2-carboxamide], the concentration for a half-maximal effect (EC50) in assay [1] stood at 0.451 µM; in assay [2], 8.3 µM; in assay [3] it was 1.24 µM; in assay [4], 0.0089 µM; in assay [5] it was 0.095 µM; in assay [6], 4.8 µM. Also, the midpoint of the response in assay [7], the EC50, lay at 0.599 µM.

Turning to `COCCN1CCC(C(=O)Nc2cc3cc(-c4cncn4C)ccc3cn2)CC1` [Compound 547, 1-(2-Methoxyethyl)-N-(6-(1-methyl-1H-imidazol-5-yl)isoquinolin-3-yl) piperidine-4-carboxamide], the EC50 in assay [1] is 0.379 µM; in assay [2], 0.931 µM; in assay [3], 1.12 µM; in assay [4], 0.0034 µM; in assay [5], 0.104 µM; in assay [6], 2.23 µM. In addition, in assay [7], the EC50 was 0.16 µM.

As to `CC(C)CN1CCC(C(=O)Nc2cc3cc(-c4cncn4C)ccc3cn2)CC1` [Compound 554, 1-Isobutyl-N-(6-(1-methyl-1H-imidazol-5-yl)isoquinolin-3-yl)piperidine-4-carboxamide], the EC50 in assay [1] amounted to 0.095 µM; in assay [2], 0.366 µM; in assay [3], 0.439 µM; in assay [4], 0.0014 µM; in assay [5], 0.038 µM; in assay [6] it was 0.272 µM. For the same compound, the EC50 in assay [7] amounted to 0.19 µM.

`Cn1cncc1-c1ccc2cnc(NC(=O)C3CCN(S(C)(=O)=O)CC3)cc2c1` [Compound 561, N-(6-(1-Methyl-1H-imidazol-5-yl)isoquinolin-3-yl)-1-(methylsulfonyl) piperidine-4-carboxamide]: the EC50 in assay [1] worked out at 0.395 µM; in assay [2], 0.924 µM; in assay [3], 0.634 µM; in assay [4], 0.0015 µM; in assay [5] it was 0.012 µM; in assay [6], 1.46 µM. Further, the EC50 in assay [7] is 0.6 µM.

With `CC(C(=O)Nc1cc2cc(-c3cncn3C)ccc2cn1)N1CCCC1` (centres unmarked) [Compound 579, N-(6-(1-Methyl-1H-imidazol-5-yl)isoquinolin-3-yl)-2-(pyrrolidin-1-yl) propanamide], the EC50 in assay [1] is 0.062 µM; in assay [2], 0.954 µM; in assay [3], 1.02 µM; in assay [4], 0.025 µM; in assay [5] it was 0.048 µM; in assay [6] it was 0.899 µM. This compound came in with an EC50 in assay [7] of 0.167 µM.

Turning to `CC(C)CN1CCC(C(=O)Nc2cc3cc(-c4cn[nH]c4)ccc3cn2)CC1` [Compound 643, N-(6-(1H-Pyrazol-4-yl)isoquinolin-3-yl)-1-isobutylpiperidine-4-carboxamide], the EC50 in assay [1] was found to be 0.049 µM; in assay [2] it was 0.115 µM; in assay [3], 0.129 µM; in assay [4], 0.0018 µM; in assay [5], 0.049 µM; in assay [6], 0.129 µM. In addition, the EC50 in assay [7] is 0.138 µM.

For `O=C(Nc1cc2cc(-c3cncs3)ccc2cn1)C1CC(F)(F)C1` [Compound 699, 3,3-Difluoro-N-(6-(thiazol-5-yl)isoquinolin-3-yl)cyclobutane-1-carboxamide], the EC50 in assay [1] was found to be 0.423 µM; in assay [2] it was 0.834 µM; in assay [3], 0.41 µM; in assay [4], 0.0021 µM; in assay [5], 0.024 µM; in assay [6] it was 0.541 µM. The compound also showed an EC50 in assay [7] of 0.234 µM.

As to `CN1CC2(CC(C(=O)Nc3cc4cc(-c5cncs5)ccc4cn3)C2)C1` [Compound 700, 2-Methyl-N-(6-(thiazol-5-yl)isoquinolin-3-yl)-2-azaspiro[3.3]heptane-6-carboxamide], the EC50 in assay [1] stood at 0.513 µM; in assay [2], 0.623 µM; in assay [3] it was 0.38 µM; in assay [4], 0.0022 µM; in assay [5], 0.049 µM; in assay [6], 0.771 µM. The compound further had an EC50 in assay [7] of 0.275 µM.

Regarding `O=C(Nc1cc2cc(-c3cncs3)ccc2cn1)C1(F)CCCCC1` [Compound 704, 1-Fluoro-N-(6-(thiazol-5-yl)isoquinolin-3-yl)cyclohexane-1-carboxamide], the EC50 in assay [1] was 10 µM; in assay [2] it was more than 10 µM; in assay [3], more than 10 µM; in assay [4], 0.0082 µM; in assay [5] it was 1.83 µM; in assay [6], more than 10 µM. This compound also yielded an EC50 in assay [7] of 4.38 µM. For the same compound, the inhibition at 10 µM turned out to be 18.1% in assay [2], 4.8% in assay [3] and 10.2% in assay [6].

For the compound `CN(C)[C@H]1CC[C@H](C(=O)Nc2cc3cc(-c4cncs4)ccc3cn2)CC1` [Compound 707, trans-4-(Dimethylamino)-N-(6-(thiazol-5-yl)isoquinolin-3-yl)cyclohexane-1-carboxamide], the concentration giving a half-maximal response (EC50) in assay [1] amounted to 0.449 µM; in assay [2] it was 0.947 µM; in assay [3] it was 0.446 µM; in assay [4] it was 0.0009 µM; in assay [5], 0.046 µM; in assay [6], 0.472 µM. The compound also yielded an EC50 in assay [7] of 4.24 µM.

As for `O=C(Nc1cc2cc(-c3cncs3)ccc2cn1)[C@H]1CC[C@H](CN2CC(F)C2)CC1` [Compound 711, trans-4-((3-Fluoroazetidin-1-yl)methyl)-N-(6-(thiazol-5-yl)isoquinolin-3-yl)cyclohexane-1-carboxamide], the EC50 in assay [1] worked out at 0.443 µM; in assay [2] it was 0.706 µM; in assay [3] it was 1.08 µM; in assay [4], 0.001 µM; in assay [5], 0.067 µM; in assay [6], 0.703 µM. For the same compound, the EC50 in assay [7] was 0.54 µM.

With `O=C(Nc1cc2cc(-c3cncs3)ccc2cn1)C1CNC1` [Compound 713, N-(6-(Thiazol-5-yl)isoquinolin-3-yl)azetidine-3-carboxamide], the EC50 in assay [1] was found to be 5 µM; in assay [2] it was 6.98 µM; in assay [3] it was 3.63 µM; in assay [4], 0.0031 µM; in assay [5], 0.098 µM; in assay [6], 9.25 µM. Further, the EC50 in assay [7] is more than 10 µM. The inhibition at 10 µM in assay [7] stood at 37.6%.

For the compound `CN1CCC(C(=O)Nc2cc3cc(-c4cncs4)ccc3cn2)CC1` [Compound 718, 1-Methyl-N-(6-(thiazol-5-yl)isoquinolin-3-yl)piperidine-4-carboxamide], the EC50 in assay [1] came out at 0.294 µM; in assay [2], 0.483 µM; in assay [3] it was 0.406 µM; in assay [4], 0.0013 µM; in assay [5], 0.079 µM; in assay [6], 0.589 µM. Moreover, the EC50 in assay [7] stood at 0.168 µM.

Take `O=C(Nc1cc2cc(-c3cncs3)ccc2cn1)C1CCN(C2COC2)CC1` [Compound 737, 1-(Oxetan-3-yl)-N-(6-(thiazol-5-yl)isoquinolin-3-yl)piperidine-4-carboxamide]: the EC50 in assay [1] was found to be 0.865 µM; in assay [2], 4.34 µM; in assay [3], 1.18 µM; in assay [4] it was 0.001 µM; in assay [5], 0.062 µM; in assay [6] it was 1.29 µM. The same compound yielded an EC50 in assay [7] of 0.08 µM.

As for `O=C(Nc1cc2cc(-c3cncs3)ccc2cn1)C1CCN(C(=O)CN2CCCC2)CC1` [Compound 741, 1-(2-(Pyrrolidin-1-yl)acetyl)-N-(6-(thiazol-5-yl)isoquinolin-3-yl)piperidine-4-carboxamide], the EC50 in assay [1] came to 0.528 µM; in assay [2], 0.462 µM; in assay [3], 0.38 µM; in assay [4], 0.0009 µM; in assay [5], 0.107 µM; in assay [6], 0.444 µM. The compound also showed an EC50 in assay [7] of 0.175 µM.

`CN1CCC(N2CCC(C(=O)Nc3cc4cc(-c5cncs5)ccc4cn3)CC2)CC1` [Compound 743, 1′-Methyl-N-(6-(thiazol-5-yl)isoquinolin-3-yl)-[1,4′-bipiperidine]-4-carboxamide]: the EC50 was determined as 0.432 µM in assay [1]; 1.54 µM in assay [2]; 1.13 µM in assay [3]; 0.0013 µM in assay [4]; 0.063 µM in assay [5]; 9.49 µM in assay [6]. Besides, a half-maximal response in assay [7] (EC50) required 0.447 µM.

The values above are taken from patent publication US10287267B2, “Isoquinolin-3-yl carboxamides and preparation and use thereof” (Samumed, LLC, priority 2016, dated 2019).
